# Laboratory results from patent US7977322B2 (Vertex Pharmaceuticals Incorporated, priority 2004, dated 2011).
# Target: T1, ΔF508-CFTR (Homo sapiens, UniProt P13569, DEL508-508)
# T1 construct: expressed in transfected cells
# Assay: Membrane potential optical (FRET/VIPR) assay, identification of correction compounds
# Format: cell-based
# Conditions: Table 3, assay not given; for Emax: read-out: % Activity / % Efficacy (relative efficacy)
# Description: I) Membrane Potential Optical Methods for Assaying ΔF508-CFTR Modulation Properties of Compounds
# These voltage sensitive assays are based on the change in fluorescence resonant energy transfer (FRET) between the membrane-soluble, voltage-sensitive dye, DiSBAC2(3), and a fluorescent phospholipid, CC2-DMPE, which is attached to the outer leaflet of the plasma membrane and acts as a FRET donor. Changes in membrane potential (Vm) cause the negatively charged DiSBAC2(3) to redistribute across the plasma membrane and the amount of energy transfer from CC2-DMPE changes accordingly. The changes in fluorescence emission were monitored using VIPR™ II, which is an integrated liquid handler and fluorescent detector designed to conduct cell-based screens in 96- or 384-well microtiter plates.
# Identification of Correction Compounds
# To identify small molecules that correct the trafficking defect associated with ΔF508-CFTR; a single-addition HTS assay format was developed. The cells were incubated in serum-free medium for 16 hrs at 37° C. in the presence or absence (negative control) of test compound. As a positive control, cells plated in 384-well plates were incubated for 16 hrs at 27° C. to “temperature-correct” ΔF508-CFTR. The cells were subsequently rinsed 3× with Krebs Ringers solution and loaded with the voltage-sensitive dyes. To activate ΔF508-CFTR, 10 μM forskolin and the CFTR potentiator, genistein (20 μM), were added along with Cl^− free medium to each well. The addition of Cl^− free medium promoted Cl^− efflux in response to ΔF508-CFTR activation and the resulting membrane depolarization was optically monitored using the FRET-based voltage-sensor dyes.
# • Bath Solution #1: (in mM) NaCl 160, KCl 4.5, CaCl2 2, MgCl2 1, HEPES 10, pH 7.4 with NaOH. • Chloride-free bath solution: Chloride salts in Bath Solution #1 are substituted with gluconate salts. • CC2-DMPE: Prepared as a 10 mM stock solution in DMSO and stored at −20° C. • DiSBAC2(3): Prepared as a 10 mM stock in DMSO and stored at −20° C.
# NIH3T3 mouse fibroblasts stably expressing ΔF508-CFTR are used for optical measurements of membrane potential. The cells are maintained at 37° C. in 5% CO2 and 90% humidity in Dulbecco's modified Eagle's medium supplemented with 2 mM glutamine, 10% fetal bovine serum, 1×NEAA, β-ME, 1×pen/strep, and 25 mM HEPES in 175 cm^2 culture flasks. For all optical assays, the cells were seeded at 30,000/well in 384-well matrigel-coated plates and cultured for 2 hrs at 37° C. before culturing at 27° C. for 24 hrs. for the potentiator assay.
# T1 sequence (P13569 with tags, fused parts or gaps DEL508-508): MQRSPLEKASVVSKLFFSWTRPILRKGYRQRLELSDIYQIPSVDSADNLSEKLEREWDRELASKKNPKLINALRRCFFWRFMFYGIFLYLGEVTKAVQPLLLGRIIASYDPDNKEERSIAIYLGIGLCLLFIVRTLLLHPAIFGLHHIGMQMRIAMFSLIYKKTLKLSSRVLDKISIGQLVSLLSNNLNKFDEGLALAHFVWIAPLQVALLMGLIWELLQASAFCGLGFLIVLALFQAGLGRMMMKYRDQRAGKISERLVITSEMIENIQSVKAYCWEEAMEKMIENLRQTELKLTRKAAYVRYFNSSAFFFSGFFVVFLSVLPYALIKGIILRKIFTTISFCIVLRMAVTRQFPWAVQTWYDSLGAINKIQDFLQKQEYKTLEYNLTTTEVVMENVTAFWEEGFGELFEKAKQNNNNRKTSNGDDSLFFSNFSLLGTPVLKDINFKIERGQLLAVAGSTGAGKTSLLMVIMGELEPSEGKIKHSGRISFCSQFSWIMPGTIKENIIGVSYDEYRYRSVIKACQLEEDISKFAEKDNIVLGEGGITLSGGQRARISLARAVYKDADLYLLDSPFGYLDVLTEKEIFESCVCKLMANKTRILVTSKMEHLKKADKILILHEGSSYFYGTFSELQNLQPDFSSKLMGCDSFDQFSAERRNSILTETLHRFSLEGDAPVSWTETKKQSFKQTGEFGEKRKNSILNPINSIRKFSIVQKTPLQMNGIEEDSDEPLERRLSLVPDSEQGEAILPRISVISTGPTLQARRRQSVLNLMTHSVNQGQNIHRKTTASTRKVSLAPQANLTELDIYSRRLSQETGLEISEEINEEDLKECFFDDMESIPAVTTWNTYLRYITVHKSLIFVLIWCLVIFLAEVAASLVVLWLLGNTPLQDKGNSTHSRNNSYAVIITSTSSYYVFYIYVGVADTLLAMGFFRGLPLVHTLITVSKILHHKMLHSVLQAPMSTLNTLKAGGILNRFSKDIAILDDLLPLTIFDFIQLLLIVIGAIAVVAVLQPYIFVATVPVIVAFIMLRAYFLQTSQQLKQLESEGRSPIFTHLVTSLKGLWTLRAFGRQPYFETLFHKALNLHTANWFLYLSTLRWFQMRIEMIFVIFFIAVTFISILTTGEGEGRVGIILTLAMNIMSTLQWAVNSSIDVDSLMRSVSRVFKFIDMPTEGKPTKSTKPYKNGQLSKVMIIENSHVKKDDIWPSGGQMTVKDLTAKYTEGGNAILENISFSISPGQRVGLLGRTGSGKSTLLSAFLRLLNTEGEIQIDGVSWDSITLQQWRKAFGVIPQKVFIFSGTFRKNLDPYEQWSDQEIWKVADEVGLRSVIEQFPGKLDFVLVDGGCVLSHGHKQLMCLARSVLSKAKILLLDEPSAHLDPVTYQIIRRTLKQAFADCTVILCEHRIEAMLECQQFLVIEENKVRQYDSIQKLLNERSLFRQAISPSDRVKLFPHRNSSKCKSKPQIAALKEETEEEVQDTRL
SMILES,% Activity / % Efficacy (relative efficacy),EC50 [µM],Emax [%]
COc1ccccc1Cc1cnc(NC(=O)C2(c3ccc(OC)c(OC)c3)CC2)s1 [Example 58],+++ (“+++” means>100%),< 10,
Nc1ccccc1Sc1cnc(NC(=O)C2(c3ccc4c(c3)OCO4)CC2)s1 [Example 98],+++ (“+++” means>100%),< 10,
COc1ccc(C2(C(=O)Nc3cnc(Cc4ccccc4Cl)s3)CC2)cc1 [Example 270],++ (“++” means between 25% to 100%),< 10,
COc1ccccc1Cc1cnc(NC(=O)C2(c3ccc(SC)cc3)CC2)s1 [Example 173],+++ (“+++” means>100%),< 10,
COc1ccc(C2(C(=O)Nc3nc(-c4cccc(OC)c4)cs3)CC2)cc1 [Example 122],+++ (“+++” means>100%),< 10,
O=C(Nc1ncc(Cc2ccncc2Cl)s1)C1(c2ccc3c(c2)OCO3)CC1 [Example 265],+++ (“+++” means>100%),< 10,
O=C(Nc1ncc(Sc2ccc(Cl)cc2)s1)C1(c2ccc3c(c2)OCO3)CC1 [Example 103],++ (“++” means between 25% to 100%),25 to 60,
O=C(Nc1ncc([C@@H](c2ccccc2Cl)N2CCCCC2)s1)C1(c2ccc3c(c2)OCO3)CC1 [Example 211],,< 10,> 100
COCCOC(c1cnc(NC(=O)C2(c3ccc4c(c3)OCO4)CC2)s1)c1ccccc1Cl (stereo not drawn) [Example 273],,< 10,> 100
Cc1cnc(NC(=O)C2(c3ccc4c(c3)OCO4)CC2)s1 [Example 85],+++ (“+++” means>100%),< 10,
COc1ccc(C2(C(=O)Nc3ncc(Cc4ccc(F)cc4C)s3)CC2)cc1 [Example 282],++ (“++” means between 25% to 100%),< 10,
O=C(Nc1ncc(C(OCCN2CCCC2)c2ccccc2Cl)s1)C1(c2ccc3c(c2)OCO3)CC1 (stereo not drawn) [Example 255],,< 10,
O=C(Nc1nc(-c2ccccc2Cl)cs1)C1(c2ccc3c(c2)OCO3)CC1 [Example 81],+++ (“+++” means>100%),< 10,
CCN(CC)c1ccc(-c2csc(NC(=O)C3(c4ccc5c(c4)OCO5)CC3)n2)cc1 [Example 120],+++ (“+++” means>100%),< 10,
O=C(Nc1ncc(Cc2ccccc2Cl)s1)C1(c2ccc(OC(F)(F)F)cc2)CC1 [Example 174],+++ (“+++” means>100%),< 10,
CCC(c1ccccc1)c1nnc(NC(=O)C2(c3ccc4c(c3)OCO4)CC2)s1 (stereo not drawn) [Example 301],,< 10,> 100
CSc1ccc(C2(C(=O)Nc3ncc(Cc4ccccc4Cl)s3)CC2)cc1 [Example 175],+++ (“+++” means>100%),< 10,
COc1ccc(C2(C(=O)Nc3ncc(Cc4cccnc4OC)s3)CC2)cc1 [Example 176],+++ (“+++” means>100%),< 10,
COc1cccc(-c2csc(NC(=O)C3(c4ccc5c(c4)OCO5)CC3)n2)c1 [Example 114],+++ (“+++” means>100%),< 10,
O=C(Nc1ncc(-c2ccncc2)s1)C1(c2ccc3c(c2)OCO3)CC1 [Example 299],,10 to 25,25 to 100
COc1ccncc1Cc1cnc(NC(=O)C2(c3ccc4c(c3)OCO4)CC2)s1 [Example 244],+++ (“+++” means>100%),< 10,
Cc1cc(F)ccc1Cc1cnc(NC(=O)C2(c3ccc4c(c3)OCO4)CC2)s1 [Example 283],++ (“++” means between 25% to 100%),< 10,
CC(C)(C)c1cc(NC(=O)C2(c3ccc4c(c3)OCO4)CC2)c(C(N)=O)s1 [Example 290],,< 10,25 to 100
Cc1ccccc1Cc1cnc(NC(=O)C2(c3ccc4c(c3)OCO4)CC2)s1 [Example 281],+++ (“+++” means>100%),< 10,
O=C(Nc1nc2c(s1)-c1ccccc1CC2)C1(c2ccc3c(c2)OCO3)CC1 [Example 110],+++ (“+++” means>100%),< 10,

# The remaining lines, values ahead:
% Activity / % Efficacy (relative efficacy),EC50 [µM],Emax [%],SMILES
,< 10,> 100,COc1ccc(C(c2cnc(NC(=O)C3(c4ccc5c(c4)OCO5)CC3)s2)N(C)C)cc1 (stereo not drawn) [Example 350]
,< 10,,CCOc1ccccc1C(N[C@@H](CO)C(C)C)c1cnc(NC(=O)C2(c3ccc4c(c3)OCO4)CC2)s1 (stereo partly drawn) [Example 478]
,< 10,> 100,Cn1nnc2cc(C3(C(=O)Nc4ncc(Cc5ccccc5Cl)s4)CC3)ccc21 [Example 304]
,10 to 25,25 to 100,CCN(CC)C(c1ccc(S(C)(=O)=O)cc1)c1cnc(NC(=O)C2(c3ccc4c(c3)OCO4)CC2)s1 (stereo not drawn) [Example 376]
,< 10,> 100,CCNC(c1cnc(NC(=O)C2(c3ccc4c(c3)OCO4)CC2)s1)c1ccccc1Cl (stereo not drawn) [Example 432]
,,> 100,CC(C)CC(CO)NC(c1cnc(NC(=O)C2(c3ccc4c(c3)OCO4)CC2)s1)c1cccc2c1OC(F)(F)O2 (stereo not drawn) [Example 498]
,< 10,> 100,O=C(Nc1ncc(C(NC2CCCCC2)c2ccccc2Cl)s1)C1(c2ccc3c(c2)OCO3)CC1 (stereo not drawn) [Example 411]
,< 10,> 100,O=C(Nc1ncc([C@@H](O)c2ccccc2Cl)s1)C1(c2ccc3c(c2)OCO3)CC1 [Example 322]
,< 10,25 to 100,CCCN(CCO)C(c1cnc(NC(=O)C2(c3ccc4c(c3)OCO4)CC2)s1)c1ccccc1Cl (stereo not drawn) [Example 426]
,< 10,> 100,O=C(Nc1ncc(C(Cc2ccccc2Cl)N2CCCCC2)s1)C1(c2ccc3c(c2)OCO3)CC1 (stereo not drawn) [Example 454]
,< 10,> 100,CCN(CCO)C(c1cnc(NC(=O)C2(c3ccc4c(c3)OCO4)CC2)s1)c1ccccc1Cl (stereo not drawn) [Example 410]
,< 10,25 to 100,O=C(Nc1ncc(C(c2cccc3c2OC(F)(F)O3)N2CCCC2)s1)C1(c2ccc3c(c2)OCO3)CC1 (stereo not drawn) [Example 494]
,< 10,> 100,O=C(Nc1ncc(C(c2ccc(Cl)cc2)N2CC[C@@H](O)C2)s1)C1(c2ccc3c(c2)OCO3)CC1 (stereo partly drawn) [Example 335]
,< 10,> 100,O=C(Nc1ncc(C(c2ccccc2F)N2CCCC2)s1)C1(c2ccc3c(c2)OCO3)CC1 (stereo not drawn) [Example 465]
,10 to 25,> 100,COCC1CCCN1C(c1cnc(NC(=O)C2(c3ccc4c(c3)OCO4)CC2)s1)C(C)(C)C (stereo not drawn) [Example 389]
,< 10,> 100,COc1cccc(C2(C(=O)Nc3ncc(C(c4ccccc4Cl)N4CC[C@@H](O)C4)s3)CC2)c1 (stereo partly drawn) [Example 452]
,< 10,> 100,CCN(CC)C(Cc1ccccc1Cl)c1cnc(NC(=O)C2(c3ccc4c(c3)OCO4)CC2)s1 (stereo not drawn) [Example 459]
,< 10,> 100,CC(C)(C)C(c1cnc(NC(=O)C2(c3ccc4c(c3)OCO4)CC2)s1)N1CCOCC1 (stereo not drawn) [Example 394]
,10 to 25,> 100,O=C(Nc1ncc(C(c2ccccc2Cl)N2CC[C@@H](O)C2)s1)C1(c2ccccc2F)CC1 (stereo partly drawn) [Example 448]
,10 to 25,25 to 100,COCC1CCCN1C(c1ccc(S(C)(=O)=O)cc1)c1cnc(NC(=O)C2(c3ccc4c(c3)OCO4)CC2)s1 (stereo not drawn) [Example 375]
,10 to 25,> 100,COc1ccc(C(c2cnc(NC(=O)C3(c4ccc5c(c4)OCO5)CC3)s2)N2CC[C@@H](O)C2)cc1 (stereo partly drawn) [Example 352]
,< 10,> 100,O=C(Nc1ncc(C(c2ccccc2Cl)N2CC[C@H](O)C2)s1)C1(c2ccc3c(c2)OCO3)CC1 (stereo partly drawn) [Example 310]
,10 to 25,> 100,COc1cccc(C(c2csc(NC(=O)C3(c4ccc5c(c4)OCO5)CC3)n2)N2CCC(O)CC2)c1 (stereo not drawn) [Example 360]
,10 to 25,> 100,CC(C)(C)C(c1cnc(NC(=O)C2(c3ccc4c(c3)OCO4)CC2)s1)N1CCC(O)CC1 (stereo not drawn) [Example 392]
,< 10,> 100,CCOc1ccccc1C(c1cnc(NC(=O)C2(c3ccc4c(c3)OCO4)CC2)s1)N1CC[C@@H](O)C1 (stereo partly drawn) [Example 473]
,< 10,> 100,Cc1ccc(C2(C(=O)Nc3ncc(C(c4ccccc4Cl)N4CC[C@@H](O)C4)s3)CC2)cc1 (stereo partly drawn) [Example 422]
